Reference: US7928113B2, “Integrin-binding small molecules” (University of Southern California, priority 2005, dated 2011)

Columns and labels:
Type in all cases: cell-based, human
[1] = system: MDA-MB-435 breast cancer cell line; test: Cytotoxicity MTT assay, MDA-MB-435; settings: Homo sapiens; 20 μM, MDA-MB-435, 72 h MTT; read-out: % inhibition of cell growth at 20 μM, 435
From the text: (§1) Cell Culture. Human breast cancer cells (MCF-7, αvβ3—, overexpressed wild-type p53, ER+; MDA-MB 468, p53 mutant, ER+; and MDA-MB-435, αvβ3+, p53 mutant, ER−) and non-small cell lung cancer cells H1975 were obtained from the American Type Cell Culture (Rockville, Md. Q4). The HEY human ovarian carcinoma cell line naturally resistant to cisplatin (CDDP) was kindly provided by Dr. Dubeau (University of Southern California Norris Cancer Center). Cells were maintained as monolayer cultures in RPMI 1640 supplemented with 10% fetal bovine serum (Gemini-Bioproducts, Woodland, Calif.) and 2 mmol/L L-glutamine at 37° C. in a humidified atmosphere of 5% CO2. To remove the adherent cells from the flask for passaging and counting, cells were washed with PBS without calcium or magnesium, incubated with a small volume of 0.25% trypsin-EDTA solution (Sigma, St. Louis, Mo.) for 5 to 10 minutes, and washed with culture medium and centrifuged. All experiments were done using cells in exponential cell growth.
(§2) Cytotoxicity Assay. Cytotoxicity was assessed by 3-(4,5-dimethylthiazol-2-yl)-2,5-diphenyltetrazolium bromide (MTT) assay as previously described.^41, 54 Briefly, cells were seeded in 96-well microtiter plates and allowed to attach. Cells were subsequently treated with a continuous exposure to the corresponding drug for 72 hours. An MTT solution (at a final concentration of 0.5 mg/mL) was added to each well and cells were incubated for 4 hours at 37° C. After removal of the medium, DMSO was added and the absorbance was read at 570 nm. All assays were done in triplicate. The IC50 was then determined for each drug from a plot of log (drug concentration) versus percentage of cell kill.
(§3) Cytotoxicity of Selected Compounds in a Panel of Cancer Cell lines. Initially, we tested all compounds in two breast cancer cell lines MDA-MB-435 and MCF7 with high and low αvβ3 expression as well as in HEY ovarian cancer cell line naturally resistant to cisplatin. […] We observed a remarkable specificity for some of the compounds against these cells. […] Considering the fact that αvβ3 mediates migration, attachment and apoptosis of cancer cells, the combination of these novel high affinity antagonists with conventional cytotoxic drugs should show improved therapeutic benefits without additional toxicity.
(§4) NVX-188 was tested for cytotoxicity by MTT assays in two breast cancer cell lines, MDA-MB-435 with high αvβ3 integrin expression and MCF7 with low αvβ3 integrin expression, and an ovarian cancer cell line, HEY, which was used to test for cell growth inhibition evidence. NVX-188 was further evaluated in a lung cancer cell line, NCI-H1975, and a mouse fibroblast, NIH3T3. NVX-188 was not cytotoxic at the highest dose level tested (20 uM).

[2] = system: MCF7 breast cancer cell line; test: Cytotoxicity MTT assay, MCF7; settings: Homo sapiens; 20 μM, MCF7, 72 h MTT; read-out: % inhibition of cell growth at 20 μM, MCF7
From the text: as §1, §2, §3, §4

[3] = system: HEY ovarian cancer cell line; test: Cytotoxicity MTT assay, HEY; settings: Homo sapiens; 20 μM, HEY, 72 h MTT; read-out: % inhibition of cell growth at 20 μM, HEY
From the text: as §1, §2, §3, §4

SMILES | inhibition at 20 µM [1] [%] | inhibition at 20 µM [2] [%] | inhibition at 20 µM [3] [%]
COc1cc(/C=N/Nc2nc(Nc3ccc(F)cc3)nc(N3CCCCC3)n2)ccc1OCC(=O)O [AV11] | 53 | 49 | 0
CCn1cc(C(=O)O)c(=O)c2cc(F)c(N3CCN(S(=O)(=O)c4ccc(NC(C)=O)cc4)CC3)cc21 [AV22] | 25 | 7 | 0
Cc1nnc(N/N=C/c2ccc(OCC(=O)O)cc2)nc1O [AV20] | 11 | 27 | 0
COc1cc(OC)c(/C=C2\S/C(=N/c3ccc(C(=O)O)cc3)N(C)C2=O)cc1Br [AV36] | 16 | 29 | 4
COc1cc(/C=C2\NC(=O)N(CC(=O)Nc3ccc(C)cc3)C2=O)ccc1OCc1cccc(C(=O)O)c1 [AV21] | 26 | 43 | 0
CC(=O)Nc1nc(O)c2nc(CCN(C)c3ccc(C(=O)O)cc3)cnc2n1 [AV5] | 49 | 0 | 0
CCC(=O)Nc1ccc(C(=O)Nc2ccc(OCC(=O)O)cc2)cc1 [AV28] | 32 | 32 | 34
Nc1nc(O)c2cc(CSc3ccc(C(=O)NC(CCC(=O)O)C(=O)O)cc3)ccc2n1 (stereo not drawn) [AV7] | 5 | 22 | 0
Nc1ccc(C(=O)Nc2nc3ccc(C(=O)O)cc3s2)cc1 [AV9] | 19 | 36 | 0
CC1=C(C#N)c2nc(N)c(C#N)c(C)c2/C1=C/c1ccc(-c2ccc(Cl)c(C(=O)O)c2)o1 [AV15] | 33 | 14 | 14
COc1cc(/C=C2\S/C(=N/c3cccc(C(=O)O)c3)N(C)C2=O)cc(Cl)c1O [AV37] | 3 | 9 | 0
Nc1nc(O)c2cc(COc3ccc(C(=O)NC(CCC(=O)O)C(=O)O)cc3)ccc2n1 (stereo not drawn) [AV8] | 12 | 24 | 6
CCC(=O)Nc1nc(C)c(-c2csc(Nc3cccc(C(=O)O)c3)n2)s1 [AV31] | 21 | 44 | 62
CN(C1=NC(=O)/C(=C\c2ccc(OCC(=O)O)cc2)S1)c1ccc(O)cc1 [AV24] | 9 | 21 | 19
O=C(CCCCn1cnc2c(S)ncnc21)Nc1ccc(C(=O)O)c(O)c1 [AV2] | 1 | 1 | 0
COc1cc(/C=C2/SC(N(C)c3ccc(O)cc3)=NC2=O)ccc1OCC(=O)O [AV25] | 26 | 29 | 12
O=C(CCCCn1cnc2c(S)ncnc21)Nc1ccc(C(=O)O)cc1 [AV1] | 0 | 0 | 14
Nc1nc(O)c2nc3c(nc2n1)C(=O)N(c1ccc(C(=O)NC(CCC(=O)O)C(=O)O)cc1)C3 (stereo not drawn) [AV6] | 12 | 19 | 0
CN(Cc1cnc2nc(N)nc(N)c2n1)c1ccc(C(=O)NC(CCCCN)C(=O)O)cc1 (stereo not drawn) [AV4] | 16 | 30 | 0
Cc1ccnc(NS(=O)(=O)c2ccc(NC(=O)c3ccc(C(=O)O)cc3C(=O)O)cc2)n1 [AV18] | 18 | 11 | 0
O=C(O)COc1ccc(/C=N/NC(=O)c2ccc(O)cc2)cc1OCC(=O)O [AV29] | 14 | 21 | 9
CCOc1cc(/C=N/Nc2nc(Nc3ccccc3)nc(N3CCCCC3)n2)ccc1OCC(=O)O [AV14] | 70 | 3 | 0
